Measurements reported in ChEMBL document CHEMBL1154313, “Synthesis, antiproliferative, and pharmacokinetic properties of 3- and 17-double-modified analogs of 2-methoxyestradiol” (Bioorg Med Chem Lett, 2009).
Activity calls are given as the source filed them. The calls are words filed in the database; no cut-off is given here.

How the values were obtained:
HUVEC [1] = assay: Ratio of 2ME2 IC50 to compound IC50 for antiangiogenic activity against HUVEC; type: functional, Homo sapiens
MDA-MB-231 [2] = assay: Antiproliferative activity against human MDA-MB-231 cells after 48 hrs by WST1 assay; type: functional, cell-based; details: MDA-MB-231, 48 h
MDA-MB-231 [3] = assay: Ratio of 2ME2 IC50 to compound IC50 for human MDA-MB-231 cells; type: functional
HUVEC [4] = assay: Antiangiogenic activity against HUVEC assessed as growth inhibition after 48 hrs by WST1 assay; type: functional, cell-based; details: Homo sapiens
MCF7 = assay: Antiproliferative activity against human MCF7 cells after 48 hrs by WST1 assay; type: functional, cell-based
[5] = Cmax in CD1 mouse at 45 mg/m'2 of body surface, po administered as single dose; type: ADME, organism-based; design: route oral; details: in vivo
Mus musculus [6] = assay: Ratio of compound Cmax to 2ME2 Cmax in CD1 mouse at 45 mg/m'2 of body surface, po administered as single dose; type: ADME, organism-based; details: in vivo
Mus musculus [7] = assay: Ratio of compound AUC (0 to infinity) to 2ME2 AUC (0 to infinity) in CD1 mouse at 45 mg/m'2 of body surface, po administered as single dose; type: ADME, organism-based; details: in vivo
[8] = Half life in CD1 mouse at 45 mg/m'2 of body surface, po administered as single dose; type: ADME, organism-based; details: in vivo
[9] = AUC (0 to infinity) in CD1 mouse at 45 mg/m'2 of body surface, po administered as single dose; type: ADME, organism-based; design: time infinity, route oral; details: plasma
HUVEC [10] = assay: Ratio of compound IC50 to 2ME2 IC50 for antiangiogenic activity against HUVEC; type: functional, Homo sapiens
MDA-MB-231 [11] = assay: Ratio of compound IC50 to 2ME2 IC50 for human MDA-MB-231 cells; type: functional

| Compound | Ratio IC50 (HUVEC [1]) | IC50 (MDA-MB-231 [2]) | Ratio IC50 (MDA-MB-231 [3]) | IC50 (HUVEC [4]) | Activity (MCF7) | Cmax [5] | Ratio (Mus musculus [6]) | Ratio (Mus musculus [7]) | half-life [8] | AUC(0-inf) [9] | Ratio IC50 (HUVEC [10]) | Ratio IC50 (MDA-MB-231 [11]) |
| --- | --- | --- | --- | --- | --- | --- | --- | --- | --- | --- | --- | --- |
| C/C=C1\CC[C@H]2[C@@H]3CCc4cc(NC=O)c(OC)cc4[C@H]3CC[C@]12C | 3 | 0.56 µM | 2 | 0.58 µM | Active | – | – | – | – | – | – | – |
| COc1cc2c(cc1NC(C)=O)CC[C@@H]1[C@@H]2CC[C@]2(C)CCC[C@@H]12 | – | 9.25 µM | – | 1.68 µM | Active | – | – | – | – | – | – | – |
| COc1cc2c(cc1N)CC[C@@H]1[C@@H]2CC[C@]2(C)[C@@H](C)CC[C@@H]12 | – | 7.31 µM | – | 2.65 µM | Active | – | – | – | – | – | – | – |
| COc1cc2c(cc1C(N)=O)CC[C@@H]1[C@@H]2CC[C@]2(C)C=CC[C@@H]12 | 5 | 0.2 µM | 6 | 0.13 µM | Active | 1430 nM | 5 | 23 | 2.1 h | 3.36 µM·h | – | – |
| COC(=O)Nc1cc2c(cc1OC)[C@H]1CC[C@]3(C)C(=O)CC[C@H]3[C@@H]1CC2 | – | 5.6 µM | – | 8.22 µM | Active | – | – | – | – | – | – | – |
| C/C=C1\CC[C@H]2[C@@H]3CCc4cc(N)c(OC)cc4[C@H]3CC[C@]12C | – | 1.94 µM | – | 0.72 µM | Active | – | – | – | – | – | – | – |
| COc1cc2c(cc1NC(N)=O)CC[C@@H]1[C@@H]2CC[C@]2(C)C(=O)CC[C@@H]12 | – | 0.71 µM | – | 0.61 µM | Active | – | – | – | – | – | – | – |
| COc1cc2c(cc1NC=O)CC[C@@H]1[C@@H]2CC[C@]2(C)CCC[C@@H]12 | – | 8.29 µM | – | 5.8 µM | Active | – | – | – | – | – | 8 | 10 |
| C=C1CC[C@H]2[C@@H]3CCc4cc(N)c(OC)cc4[C@H]3CC[C@]12C | – | 2.11 µM | – | 1 µM | Active | – | – | – | – | – | – | – |
| COC(=O)Oc1cc2c(cc1OC)[C@H]1CC[C@]3(C)C(=O)CC[C@H]3[C@@H]1CC2 | – | 25 µM | – | 32.9 µM | Active | – | – | – | – | – | – | – |
| COc1cc2c(cc1NC=O)CC[C@@H]1[C@@H]2CC[C@]2(C)C(=O)CC[C@@H]12 | 3 | 1.22 µM | – | 0.53 µM | Active | – | – | – | – | – | – | 10 |
| COc1cc2c(cc1C(N)=O)CC[C@@H]1[C@@H]2CC[C@]2(C)CCC[C@@H]12 | – | 1.86 µM | – | 1.19 µM | Active | 504 nM | – | – | 1.1 h | 2.53 µM·h | 8 | 3 |
| COc1cc2c(cc1N)CC[C@@H]1[C@@H]2CC[C@]2(C)C(=O)CC[C@@H]12 | – | 46.9 µM | – | 23.4 µM | Active | – | – | – | – | – | – | – |
| C=C1CC[C@H]2[C@@H]3CCc4cc(C(N)=O)c(OC)cc4[C@H]3CC[C@]12C | 5 | 0.12 µM | 6 | 0.25 µM | Active | 334 nM | – | – | 4.8 h | 3.2 µM·h | – | – |
| COc1cc2c(cc1NC=O)CC[C@@H]1[C@@H]2CC[C@]2(C)[C@@H](C)CC[C@@H]12 | 3 | 0.61 µM | 2 | 0.59 µM | Active | – | – | – | – | – | – | – |
| COc1cc2c(cc1NC#N)CC[C@@H]1[C@@H]2CC[C@]2(C)C(=O)CC[C@@H]12 | – | 0.2 µM | – | 0.25 µM | Active | – | – | – | – | – | – | – |
| CCNC(=O)c1cc2c(cc1OC)[C@H]1CC[C@]3(C)CCC[C@H]3[C@@H]1CC2 | – | 53 µM | – | 38 µM | Active | – | – | – | – | – | – | – |
| COc1cc2c(cc1C(N)=O)CC[C@@H]1[C@@H]2CC[C@]2(C)C(=O)CC[C@@H]12 | – | 2.2 µM | – | 5.46 µM | Active | – | – | – | – | – | 8 | – |
| COc1cc2c(cc1O)CC[C@@H]1[C@@H]2CC[C@]2(C)[C@@H](O)CC[C@@H]12 [2-METHOXYESTRADIOL] | – | 0.79 µM | – | 0.68 µM | Active | 294 nM | – | – | 0.3 h | 0.142 µM·h | – | – |
| COc1cc2c(cc1N)CC[C@@H]1[C@@H]2CC[C@]2(C)CCC[C@@H]12 | – | 7.38 µM | – | 4.72 µM | Active | – | – | – | – | – | – | – |
| C=C1CC[C@H]2[C@@H]3CCc4cc(NC=O)c(OC)cc4[C@H]3CC[C@]12C | 3 | 0.3 µM | 2 | 0.22 µM | Active | – | – | – | – | – | – | – |
| C=Cc1cc2c(cc1OC)[C@H]1CC[C@]3(C)CCC[C@H]3[C@@H]1CC2 | – | 1.86 µM | – | 0.58 µM | Active | – | – | – | – | – | – | – |
